We go through 25 compounds from patent USRE38257E1, “Piperdine derivatives and hypotensives containing the same” (Ajinomoto Co., Inc., priority 1988, dated 2003).

This experiment has as its system male spontaneously hypertensive rats. Description: Decrease in systolic blood pressure in spontaneously hypertensive rats after intravenous bolus injection, indirect (tail-cuff) method. The format is in vivo, rat. The following applies: for Decrease in systolic blood pressure (mmHg) time after administration (hour) 0.5: 0.5 hour after administration; for Decrease in systolic blood pressure (mmHg) time after administration (hour) 4: 4 hours after administration. The method, then:
As test animals, four male spontaneously hypertensive rats (weight 400 to 440 g) that were sufficiently adapted for feeding and in which hypertension was confirmed were used.
Physiological saline aqueous solution containing 2.5% Nicolle and 2.5% ethanol of sample was intravenously administered by bolus injection at a dose of 1 ml per 1 kg of body weight. Systolic blood pressure after administration was measured by the indirect (tail-cuff) method.

Turning to `Cl.O=[N+]([O-])c1ccc(CCCCN2CCC(=C3c4ccccc4C=Cc4ccccc43)CC2)cc1` [Example 196, 4-(5H-Dibenzo[a,d]cyclohepten-5-ylidene)-1-(4-(4-nitrophenyl)butyl)piperidine hydrochloride], where the note is “dose 10 mg/kg i.v. bolus”, the “Decrease in systolic blood pressure (mmHg) time after administration (hour) 0.5” value (from here on “Decrease in systolic blood pressure … (hour) 0.5”) is −145 mmHg and the “Decrease in systolic blood pressure (mmHg) time after administration (hour) 4” value (shortened to “Decrease in systolic blood pressure … (hour) 4”) was −81 mmHg.

Turning to `Cl.O=C1CCCC(CCCCN2CCC(=C3c4ccccc4C=Cc4ccccc43)CC2)C1` (centres unmarked) [Example 301, 3-(4-(4-(5H-Dibenzo[a,d]cyclohepten-5-ylidene)-1-piperidinyl)-1-butyl)cyclohexanoe hydrochloride], where the note is “dose 10 mg/kg i.v. bolus”, the “Decrease in systolic blood pressure … (hour) 0.5” value is −100 mmHg and the “Decrease in systolic blood pressure … (hour) 4” value was −12 mmHg.

Turning to `CCC(C#N)(CCCN1CCC(=C2c3ccccc3C=Cc3ccccc32)CC1)c1cccc(C(F)(F)F)c1.Cl` (centres unmarked) [Example 149, 5-(4-(5H-Dibenzo[a,d]cyclohepten-5-ylidene)-1-piperidinyl)-2-ethyl-2-(3-trifluoromethylphenyl)valeronitrile hydrochloride], for the setting “dose 10 mg/kg i.v. bolus”, the “Decrease in systolic blood pressure … (hour) 0.5” value is −116 mmHg and the “Decrease in systolic blood pressure … (hour) 4” value is listed as −32 mmHg.

On to `Cl.O=[N+]([O-])c1cccc2c1CC(CN1CCC(=C3c4ccccc4C=Cc4ccccc43)CC1)C2` (centres unmarked) [Example 329, 2-(4-(5H-Dibenzo[a,d]cyclohepten-5-ylidene)-1-piperidinyl)methyl-4′-nitroindan hydrochloride], for which, for the setting “dose 10 mg/kg i.v. bolus”, the “Decrease in systolic blood pressure … (hour) 0.5” value is listed as −34 mmHg and the “Decrease in systolic blood pressure … (hour) 4” value is reported as −7 mmHg.

Take `CC(=O)Nc1ccc(C=CCN2CCC(=C3c4ccccc4C=Cc4ccccc43)CC2)cc1.Cl.Cl` [Example 232, 1-(4-Acetylaminocinnamyl)-4-(5H-dibenzo[a,d]cyclohepten-5-ylidene)piperidine dihydrochloride]: under “dose 1 mg/kg i.v. bolus”, the “Decrease in systolic blood pressure … (hour) 0.5” value is recorded as −92 mmHg and the “Decrease in systolic blood pressure … (hour) 4” value is on record as −85 mmHg.

With `Cl.OCC1(CCCCN2CCC(=C3c4ccccc4C=Cc4ccccc43)CC2)CCCCC1` [Example 272, 1-(4-(4-(5H-Dibenzo[a,d]cyclohepten-5-ylidene)-1-piperidinyl)-1-butyl)-1-hydroxymethylcyclohexane hydrochloride], for the setting “dose 10 mg/kg i.v. bolus”, the “Decrease in systolic blood pressure … (hour) 0.5” value is reported as −76 mmHg and the “Decrease in systolic blood pressure … (hour) 4” value is recorded as −3 mmHg.

`CCCCCCCCCC(=O)N1CCC(=C2c3ccccc3C=Cc3ccccc32)CC1` [Example 164, 1-Decanolyl-4-(5H-dibenzo[a,d]cyclohepten-5-ylidene)piperidine]: where the note is “dose 10 mg/kg i.v. bolus”, the “Decrease in systolic blood pressure … (hour) 0.5” value is recorded as −91 mmHg and the “Decrease in systolic blood pressure … (hour) 4” value is −22 mmHg.

In the case of “4-(4-(5H-Dibenzo[a,d]cyclohepten-5-ylidene)-1-piperidinyl)-3′,4′-dimethoxybutyrophenone N-oxide [Example 271]”, under “dose 10 mg/kg i.v. bolus”, the “Decrease in systolic blood pressure … (hour) 0.5” value is given as −17 mmHg and the “Decrease in systolic blood pressure … (hour) 4” value is given as −13 mmHg.

Turning to `Cl.O=C(CCCN1CCC(=C2c3ccccc3C=Cc3ccccc32)CC1)N1CCOCC1` [Example 245, 1-(4-(4-(5H-Dibenzo[a,d]cyclohepten-5-ylidene)-1-piperidinyl)butanoyl)morpholine hydrochloride], under “dose 10 mg/kg i.v. bolus”, the “Decrease in systolic blood pressure … (hour) 0.5” value is −34 mmHg and the “Decrease in systolic blood pressure … (hour) 4” value was −10 mmHg.

Regarding `COCC(=O)Oc1ccc(C=CCN2CCC(=C3c4ccccc4C=Cc4ccccc43)CC2)cc1.Cl` [Example 383, 4-(5H-Dibenzo[a,d]cyclohepten-5-ylidene)-1-(4-(2-methoxyacetoxy)cinnamyl)piperidine hydrochloride], where the note is “dose 3 mg/kg i.v. bolus”, the “Decrease in systolic blood pressure … (hour) 0.5” value is on record as −112 mmHg and the “Decrease in systolic blood pressure … (hour) 4” value is on record as −86 mmHg.

On to `CCCCCCCCN1CCC(=C2c3ccccc3C=Cc3ccccc32)CC1.Cl` [Example 2, 4-(5H-Dibenzo[a,d]cyclohepten-5-ylidene)-1-octylpiperidine hydrochloride], for which, for the setting “dose 10 mg/kg i.v. bolus”, the “Decrease in systolic blood pressure … (hour) 0.5” value was −125 mmHg and the “Decrease in systolic blood pressure … (hour) 4” value is −34 mmHg.

On to `COc1ccc(C(=O)CCCN2CCC(=C3c4ccccc4CCc4ccccc43)CC2)cc1OC.Cl` [Example 187, 4-(4-(10,11-Dihydro-5H-dibenzo[a,d]cyclohepten-5-ylidene)-1-piperidinyl)-3′,4′-dimethoxy-butyrophenone hydrochloride], for which, for the setting “dose 10 mg/kg i.v. bolus”, the “Decrease in systolic blood pressure … (hour) 0.5” value is −47 mmHg and the “Decrease in systolic blood pressure … (hour) 4” value was −9 mmHg.

Take `Cl.OC(CCCN1CCC(=C2c3ccccc3C=Cc3ccccc32)CC1)c1ccc(F)cc1` (centres unmarked) [Example 108, 4-(4-(5H-Dibenzo[a,d]cyclohepten-5-ylidene)-1-piperidinyl)-1-hydroxy-1-(4-fluorophenyl)butane hydrochloride]: where the note is “dose 10 mg/kg i.v. bolus”, the “Decrease in systolic blood pressure … (hour) 0.5” value was −126 mmHg and the “Decrease in systolic blood pressure … (hour) 4” value is reported as −50 mmHg.

Consider `CC(=O)N1CCC(C=CCCCN2CCC(=C3c4ccccc4C=Cc4ccccc43)CC2)CC1.Cl.Cl` [Example 321, 1-(N-Acetyl-4-piperidinyl)-5-(4-(5H-dibenzo[a,d]cyclohepten-5-ylidene)-1-piperidinyl)-1-pentene dihydrochloride], for which, for the setting “dose 10 mg/kg i.v. bolus”, the “Decrease in systolic blood pressure … (hour) 0.5” value is −60 mmHg and the “Decrease in systolic blood pressure … (hour) 4” value is given as −4 mmHg.

Consider `Cl.O=S(=O)(CCCN1CCC(=C2c3ccccc3C=Cc3ccccc32)CC1)c1ccccc1` [Example 241, 3-(4-(5H-Dibenzo[a,d]cyclohepten-5-ylidene)-1-piperidinyl)-1-propyl phenylsulphone hydrochloride], for which, under “dose 10 mg/kg i.v. bolus”, the “Decrease in systolic blood pressure … (hour) 0.5” value is on record as −73 mmHg and the “Decrease in systolic blood pressure … (hour) 4” value is −4 mmHg.

As to `Cl.Cl.Nc1ccc(C=CCN2CCC(=C3c4ccccc4C=Cc4ccccc43)CC2)cc1` [Example 326, 1-(4-Aminocinnamyl)-4-(5H-Dibenzo[a,d]cyclohepten-5-ylidene)-1-piperidine dihydrochloride], where the note is “dose 1 mg/kg i.v. bolus”, the “Decrease in systolic blood pressure … (hour) 0.5” value is given as −125 mmHg and the “Decrease in systolic blood pressure … (hour) 4” value is −102 mmHg.

In the case of `Cl.Clc1ccc(CN2CCC(=C3c4ccccc4C=Cc4ccccc43)CC2)cc1` [Example 130, 1-(4-Chlorobenzyl)-4-(5H-Dibenzo[a,d]cyclohepten-5-ylidene)piperidine hydrochloride], under “dose 10 mg/kg i.v. bolus”, the “Decrease in systolic blood pressure … (hour) 0.5” value is listed as −42 mmHg and the “Decrease in systolic blood pressure … (hour) 4” value came out at 9 mmHg.

Turning to `COc1cc(C=CCN2CCC(=C3c4ccccc4C=Cc4ccccc43)CC2)ccc1[N+](=O)[O-].Cl` [Example 387, 4-(5H-Dibenzo[a,d]cyclohepten-5-ylidene)-1-(3-methoxy-4-nitrocinnamyl)piperidine hydrochloride], under “dose 10 mg/kg i.v. bolus”, the “Decrease in systolic blood pressure … (hour) 0.5” value is listed as −112 mmHg and the “Decrease in systolic blood pressure … (hour) 4” value is listed as −50 mmHg.

`COC(=O)c1cccc(C=CCN2CCC(=C3c4ccccc4C=Cc4ccccc43)CC2)c1.Cl` [Example 375, 4-(5H-Dibenzo[a,d]cyclohepten-5-ylidene)-1-(3-methoxycarbonylcinnamyl)piperidine hydrochloride]: for the setting “dose 1 mg/kg i.v. bolus”, the “Decrease in systolic blood pressure … (hour) 0.5” value is −126 mmHg and the “Decrease in systolic blood pressure … (hour) 4” value was −70 mmHg.

Take “3-(4-(5H-Dibenzo[a,d]cyclohepten-5-ylidene)-1-piperidinyl)-1-(2-pyridyl)-1-propane hydrochloride [Example 284]”: where the note is “dose 3 mg/kg i.v. bolus”, the “Decrease in systolic blood pressure … (hour) 0.5” value was −151 mmHg and the “Decrease in systolic blood pressure … (hour) 4” value was −40 mmHg.

Regarding `Cl.Cl.Nc1ccccc1CN1CCC(=C2c3ccccc3C=Cc3ccccc32)CC1` [Example 138, 1-(2-Aminobenzy)-4-(5H-Dibenzo[a,d]cyclohepten-5-ylidene)piperidine dihydrochloride], under “dose 10 mg/kg i.v. bolus”, the “Decrease in systolic blood pressure … (hour) 0.5” value is −129 mmHg and the “Decrease in systolic blood pressure … (hour) 4” value is reported as −33 mmHg.

As to `CC(=O)Nc1ccc(C=CCN2CCC(=C3c4ccccc4CCc4ccccc43)CC2)cc1.Cl.Cl` [Example 352, 1-(4-Acetylaminocinnamyl)-4-(10,11 dihydro-5H-Dibenzo[a,d]cyclohepten-5-ylidene)piperidine dihydrochloride], where the note is “dose 3 mg/kg i.v. bolus”, the “Decrease in systolic blood pressure … (hour) 0.5” value is −93 mmHg and the “Decrease in systolic blood pressure … (hour) 4” value was −60 mmHg.

In the case of `Cc1ccc(C(=O)CCCN2CCC(=C3c4ccccc4C=Cc4ccccc43)CC2)cc1C.Cl` [Example 198], under “dose 10 mg/kg i.v. bolus”, the “Decrease in systolic blood pressure … (hour) 0.5” value was −124 mmHg and the “Decrease in systolic blood pressure … (hour) 4” value is −25 mmHg.

Take `COc1ccc(OC)c(C=CCN2CCC(=C3c4ccccc4C=Cc4ccccc43)CC2)c1.Cl` [Example 343, 4-(5H-Dibenzo[a,d]cyclohepten-5-ylidene)-1-(2,5-dimethoxycinnamyl)piperidine hydrochloride]: under “dose 3 mg/kg i.v. bolus”, the “Decrease in systolic blood pressure … (hour) 0.5” value was −83 mmHg and the “Decrease in systolic blood pressure … (hour) 4” value is reported as −45 mmHg.

Take `COc1ccc(C(=O)NCCN2CCCCC2=C2c3ccccc3C=Cc3ccccc32)c(OC)c1.Cl` [Example 292, N-(2-(5H-Dibenzo[a,d]cyclohepten-5-ylidene)-1-piperidinyl)ethyl-2,4-dimethoxybenzamide hydrochloride]: where the note is “dose 3 mg/kg i.v. bolus”, the “Decrease in systolic blood pressure … (hour) 0.5” value is reported as −31 mmHg and the “Decrease in systolic blood pressure … (hour) 4” value is recorded as 3 mmHg.
